Experimental data: publication PMC5789640, “Depletion of Arabidopsis ACYL-COA-BINDING PROTEIN3 Affects Fatty Acid Composition in the Phloem” (Frontiers in Plant Science, 2018)

target: T1, (His)6-AtACBP3 (Arabidopsis thaliana, UniProt Q9STX1); assay: isothermal titration calorimetry; type: binding
T1 construct: gene ACBP3; plasmid pAT223, E. coli BL21(DE3) pLysS
T1 sequence (Q9STX1 23-362): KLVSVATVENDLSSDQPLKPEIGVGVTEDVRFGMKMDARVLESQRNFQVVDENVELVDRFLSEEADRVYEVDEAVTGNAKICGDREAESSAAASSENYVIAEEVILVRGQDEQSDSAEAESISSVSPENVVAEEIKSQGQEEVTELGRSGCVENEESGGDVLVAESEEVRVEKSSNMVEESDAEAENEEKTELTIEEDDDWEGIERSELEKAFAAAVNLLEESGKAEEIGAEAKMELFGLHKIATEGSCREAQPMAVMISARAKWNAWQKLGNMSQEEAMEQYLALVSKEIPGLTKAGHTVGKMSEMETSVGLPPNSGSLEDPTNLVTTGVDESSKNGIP
From the text: isothermal titration calorimetry on (His)6-AtACBP3

Point of comparison: CCCCC/C=C\C/C=C\CCCCCCCC(=O)SCCNC(=O)CCNC(=O)[C@H](O)C(C)(C)COP(=O)(O)OP(=O)(O)OC[C@H]1O[C@@H](n2cnc3c(N)ncnc32)[C@H](O)[C@@H]1OP(=O)(O)O [C18:2-CoA ester], Kd 13.4 ± 1.4 µM. Against it:
- CCCCCC/C=C\CCCCCCCC(=O)SCCNC(=O)CCNC(=O)[C@H](O)C(C)(C)COP(=O)(O)OP(=O)(O)OC[C@H]1O[C@@H](n2cnc3c(N)ncnc32)[C@H](O)[C@@H]1OP(=O)(O)O [C16:1-CoA ester] — 2.6-fold lower, 5.1 ± 1.9 µM
- CCCCCCCCCCCCCCCCC(=O)SCCNC(=O)CCNC(=O)[C@H](O)C(C)(C)COP(=O)(O)OP(=O)(O)OC[C@H]1O[C@@H](n2cnc3c(N)ncnc32)[C@H](O)[C@@H]1OP(=O)(O)O [C17:0-CoA ester] — 1.6-fold higher, 21 ± 4.7 µM
- CCCCCCCCCCCC(=O)SCCNC(=O)CCNC(=O)[C@H](O)C(C)(C)COP(=O)(O)OP(=O)(O)OC[C@H]1O[C@@H](n2cnc3c(N)ncnc32)[C@H](O)[C@@H]1OP(=O)(O)O [C12:0-CoA ester] — 2.5-fold higher, 33.1 ± 13 µM
- CCCCCCCCCCCCCC(=O)SCCNC(=O)CCNC(=O)[C@H](O)C(C)(C)COP(=O)(O)OP(=O)(O)OC[C@H]1O[C@@H](n2cnc3c(N)ncnc32)[C@H](O)[C@@H]1OP(=O)(O)O [C14:0-CoA ester] — 3.4-fold lower, 4 ± 0.6 µM
- CC/C=C\C/C=C\C/C=C\CCCCCCCC(=O)SCCNC(=O)CCNC(=O)[C@H](O)C(C)(C)COP(=O)(O)OP(=O)(O)OC[C@H]1O[C@@H](n2cnc3c(N)ncnc32)[C@H](O)[C@@H]1OP(=O)(O)O [C18:3-CoA ester] — 1.6-fold lower, 8.6 ± 2 µM
